Test system: 5-alpha-reductases
Assay: 5-alpha-reductase inhibition
Format: biochemical
Conditions: at a workable concentration of 9 μg/ml; FIG. 4

Question: For CC(C)(C)NC(=O)[C@H]1CC[C@H]2[C@@H]3CC[C@H]4NC(=O)C=C[C@]4(C)[C@H]3CC[C@]12C [Finasteride], which “inhibition of 5-alpha-reductase” value is on record?
Answer: Its value is at most 13%.

Source: patent US20080286387A1, “Standardized method for recovering enriched Indian date extract (IDE), properties of IDE and applications thereof” (priority 2007, published 2008)
